From patent publication US11541129B2, “Nanoreservoir coated medical devices, biomaterials, and bioprosthetics” (Université de Liège, priority 2016, dated 2023)
Converted amounts (≈) assume the structure as drawn.

Tested on: platelets
Experiment: ADP-induced platelet aggregation in PRP (light transmission aggregometry)
Assay type: cell-based
Conditions: Homo sapiens, 10 μM ADP, 37° C., read-out: IC50 concentration of free ticagrelor, ADP-induced platelet aggregation
Experimental: (A) PRP was pre-incubated for 10 min with a solution of nanoreservoir containing increasing concentrations of ticagrelor or with free ticagrelor, as indicated. Platelet aggregation was induced by adding 10 μM ADP at 37° C. under stirring conditions (1200 rpm). Percentages of maximum aggregation recorded by light transmission aggregometry are shown. Data represent means±SD (*p<0.05, **p<0.01, ***p<0.001). (B) Maximum platelet aggregation obtained in the presence of different ratios of ticagrelor-loaded nanogels and minocycline-loaded nanogels. NG: nanogel bearing PEG 1500; NGT: ticagrelor-loaded nanogel bearing PEG 1500; NGM: minocycline-loaded nanogel bearing PEG 1500. Data represent means±SD.
Platelet-rich-plasma (PRP) was prepared by centrifugation of citrate anticoagulated human blood at 100×g for 15 min at room temperature. Platelet aggregation experiments were performed on PRP aliquots under stirring (1200 rpm) at 37° C. using light aggregometry (Chrono-Log Model 700 aggregometer, Kordia).
For this purpose, 1 ml of nanogel suspensions loaded with increasing concentrations of ticagrelor was centrifuged at 12000 g for 15 minutes, washed 2 times in PBS and resuspended in 300 μL of PBS. 260 μL of platelet-rich-plasma (PRP) was incubated with 10 μL of purified nanogel suspensions for 10 min. Platelet aggregation was then induced by adding 10 μM ADP at 37° C. under stirring conditions. […]

## CCCSc1nc(N[C@@H]2C[C@H]2c2ccc(F)c(F)c2)c2nnn([C@@H]3C[C@H](OCCO)[C@@H](O)[C@H]3O)c2n1 [ticagrelor]
  IC50: 1.8 µg/mL (≈ 3.44 µM)
